“Also recorded” adds a separate entry of the source.
Tests used:
mouse brain = details: in vivo
Description: To measure brain uptake of the exendin-4/Angiopep-2 conjugates, we used an in situ perfusion assay. […] The uptake of labeled exendin-4 and the exendin-4/Angiopep-2 conjugates was measured using the in situ brain perfusion method adapted in our laboratory for the study of drug uptake in the mouse brain (Dagenais et al., J Cereb Blood Flow Metab. 20:381-6, 2000; Cisternino et al., Pharm Res 18, 183-190, 2001). Briefly, the right common carotid artery of mice anesthetized with ketamine/xylazine (140/8 mg/kg i.p.) was exposed and ligated at the level of the bifurcation of the common carotid, rostral to the occipital artery. The common carotid was then catheterized rostrally with polyethylene tubing filled with heparin (25 U/ml) and mounted on a 26-gauge needle. The syringe containing the perfusion fluid ([^125I]-proteins or [^125I]-peptides in Krebs/bicarbonate buffer at pH 7.4, gassed with 95% O2 and 5% CO2) was placed in an infusion pump (Harvard pump PHD 2000; Harvard Apparatus) and connected to the catheter. Prior to the perfusion, the contralateral blood flow contribution was eliminated by severing the heart ventricles. The brain was perfused for 5 min at a flow rate of 1.15 ml/min. After perfusion of radiolabeled molecules, the brain was further perfused for 60 s with Krebs buffer, to wash away excess [^125I]-proteins. […]

DIO mice = assay: reduction of glycemia in DIO mice after bolus injection; format: in vivo, mouse; details: vs control
Description: We also tested the ability of the exendin-4-Angiopep-2 dimer conjugate to reduce glycemia in DIO mice. Mice were injected with a bolus containing a control, exendin-4, or the exendin-4-Angiopep-2 dimer conjugate.

ob/ob mice = assay: treatment of obese (ob/ob) mice with exendin-4/Angiopep-2 conjugate; format: in vivo, mouse; details: Q1D, higher doses (exendin-4 30 μg/kg, Exen-An2 48 μg/kg), vs control
Description: Obese mice (ob/ob mice) were administered the [Lys^39-MHA]exendin-4/Angiopep-2-Cys-NH2 conjugate (Exen-An2).
A 1.6 μg/kg dose of Exen-An2 is equivalent to a 1 μg/kg dose of exendin-4. The body weight of each mouse was measured daily. Food intake was estimated based on the mean values for each group, and glycemia was measured one hour following treatment.

Row | Substance | brain distribution (mouse brain) [ml/100 g/2 min] | glycemia (DIO mice) | body weight gain (ob/ob mice; after 10 days, FIG. 5) | food intake (ob/ob mice; FIG. 6)
1 | [Lys^39-MHA]exendin-4/Angiopep-2-Cys-NH2 [Exen-An2] | 10 | – | – | –
2 | exendin-4 [reference compound] | 0.2 | reduced glycemia | lower than the control; also recorded: reduce weight gain | reduced; also recorded: reduce food intake

— US8921314B2, “Conjugates of GLP-1 agonists and uses thereof” (Angiochem, Inc., priority 2008, dated 2014)
